Laboratory results published in patent publication US11890287B2, “Therapeutic compounds and compositions for treating social disorders and substance use disorders” (Kinoxis Therapeutics Pty Ltd, priority 2015, dated 2024).

Columns and labels:
Beta2 = molecular target: T1, Beta2 (Homo sapiens, UniProt P07550); assay: PDSP orthosteric binding screen
T1 construct: Psychoactive Drug Screening Program (PDSP)
Excerpt: (§1) Comprehensive screening of affinity for the orthosteric binding sites for numerous receptors from the Psychoactive Drug Screening Program (PDSP) have failed as yet to identify a target, despite the powerful OT-like behavioural effects of the compound evident in vivo and the clear activation of brain OT systems evident from our Fos data.

H3 = molecular target: T2, H3 (Homo sapiens, UniProt Q9Y5N1); assay: PDSP orthosteric binding screen
T2 construct: Psychoactive Drug Screening Program (PDSP)
Excerpt: as §1

Sigma 1 = assay: PDSP orthosteric binding screen
Excerpt: as §1

D3 = molecular target: T3, D3 (Homo sapiens, UniProt P35462); assay: PDSP orthosteric binding screen
T3 construct: Psychoactive Drug Screening Program (PDSP)
Excerpt: as §1

5-HT1D = molecular target: T4, 5-HT1D (Homo sapiens, UniProt P28221); assay: PDSP orthosteric binding screen
T4 construct: Psychoactive Drug Screening Program (PDSP)
Excerpt: as §1

D2 = molecular target: T5, D2 (Homo sapiens, UniProt P14416); assay: PDSP orthosteric binding screen
T5 construct: Psychoactive Drug Screening Program (PDSP)
Excerpt: as §1

Beta3 = molecular target: T6, Beta3 (Homo sapiens, UniProt P13945); assay: PDSP orthosteric binding screen
T6 construct: Psychoactive Drug Screening Program (PDSP)
Excerpt: as §1

Alpha1D = molecular target: T7, Alpha1D (Homo sapiens, UniProt P25100); assay: PDSP orthosteric binding screen
T7 construct: Psychoactive Drug Screening Program (PDSP)
T7 sequence (P25100 whole entry): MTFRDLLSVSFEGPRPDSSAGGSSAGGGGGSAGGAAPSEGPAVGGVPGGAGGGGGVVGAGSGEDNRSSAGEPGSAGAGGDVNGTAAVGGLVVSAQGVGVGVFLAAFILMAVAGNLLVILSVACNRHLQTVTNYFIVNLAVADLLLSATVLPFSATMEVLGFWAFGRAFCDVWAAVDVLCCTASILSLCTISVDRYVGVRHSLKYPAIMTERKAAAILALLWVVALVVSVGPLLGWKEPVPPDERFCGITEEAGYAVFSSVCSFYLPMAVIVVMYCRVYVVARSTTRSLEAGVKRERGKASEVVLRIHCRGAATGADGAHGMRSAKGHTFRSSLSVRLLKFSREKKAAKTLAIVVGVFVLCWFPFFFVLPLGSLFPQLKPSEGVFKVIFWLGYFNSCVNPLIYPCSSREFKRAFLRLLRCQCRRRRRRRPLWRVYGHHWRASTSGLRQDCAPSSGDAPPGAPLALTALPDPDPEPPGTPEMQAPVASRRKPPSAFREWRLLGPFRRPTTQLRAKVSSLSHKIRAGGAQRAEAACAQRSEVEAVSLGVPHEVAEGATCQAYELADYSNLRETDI
Excerpt: as §1

D4 = molecular target: T8, D4 (Homo sapiens, UniProt P21917); assay: PDSP orthosteric binding screen
T8 construct: Psychoactive Drug Screening Program (PDSP)
Excerpt: as §1

5-HT1B = molecular target: T9, 5-HT1B (Homo sapiens, UniProt P28222); assay: PDSP orthosteric binding screen
T9 construct: Psychoactive Drug Screening Program (PDSP)
Excerpt: as §1

H1 = molecular target: T10, H1 (Homo sapiens, UniProt P35367); assay: PDSP orthosteric binding screen
T10 construct: Psychoactive Drug Screening Program (PDSP)
Excerpt: as §1

GABAA = assay: PDSP orthosteric binding screen
Excerpt: as §1

M2 = molecular target: T11, M2 (Homo sapiens, UniProt P08172); assay: PDSP orthosteric binding screen
T11 construct: Psychoactive Drug Screening Program (PDSP)
T11 sequence (P08172 whole entry): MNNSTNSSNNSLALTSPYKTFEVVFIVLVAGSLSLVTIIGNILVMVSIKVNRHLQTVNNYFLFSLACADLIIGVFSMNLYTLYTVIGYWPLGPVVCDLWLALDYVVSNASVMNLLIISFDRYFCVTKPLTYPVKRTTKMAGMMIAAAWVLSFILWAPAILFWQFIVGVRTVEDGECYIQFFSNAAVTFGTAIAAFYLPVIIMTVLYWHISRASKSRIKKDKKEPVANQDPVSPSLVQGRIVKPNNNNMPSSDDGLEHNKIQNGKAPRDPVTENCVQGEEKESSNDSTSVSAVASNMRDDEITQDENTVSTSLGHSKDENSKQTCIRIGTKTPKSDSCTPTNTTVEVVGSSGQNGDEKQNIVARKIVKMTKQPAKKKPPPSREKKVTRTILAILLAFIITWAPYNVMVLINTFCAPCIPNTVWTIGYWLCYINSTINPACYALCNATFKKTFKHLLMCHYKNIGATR
Excerpt: as §1

DAT = molecular target: T12, DAT (Homo sapiens, UniProt Q01959); assay: PDSP orthosteric binding screen
T12 construct: Psychoactive Drug Screening Program (PDSP)
T12 sequence (Q01959 whole entry, species assumed): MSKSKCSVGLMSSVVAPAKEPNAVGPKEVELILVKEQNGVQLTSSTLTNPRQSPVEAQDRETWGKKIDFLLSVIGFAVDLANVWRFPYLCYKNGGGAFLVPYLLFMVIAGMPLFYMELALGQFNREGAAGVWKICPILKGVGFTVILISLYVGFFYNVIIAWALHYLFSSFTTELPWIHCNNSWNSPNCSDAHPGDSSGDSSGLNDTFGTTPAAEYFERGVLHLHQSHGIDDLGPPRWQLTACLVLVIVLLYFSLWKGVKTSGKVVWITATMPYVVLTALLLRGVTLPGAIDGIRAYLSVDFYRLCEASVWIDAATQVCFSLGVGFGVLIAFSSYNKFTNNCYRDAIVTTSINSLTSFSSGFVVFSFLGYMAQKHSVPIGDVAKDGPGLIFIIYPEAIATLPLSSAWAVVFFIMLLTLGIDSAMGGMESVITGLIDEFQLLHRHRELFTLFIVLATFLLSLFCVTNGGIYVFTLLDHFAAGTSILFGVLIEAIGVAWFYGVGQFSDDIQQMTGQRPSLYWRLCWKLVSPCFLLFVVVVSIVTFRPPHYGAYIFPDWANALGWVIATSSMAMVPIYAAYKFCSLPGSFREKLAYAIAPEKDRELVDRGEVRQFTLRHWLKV
Excerpt: as §1

5-HT2A = molecular target: T13, 5-HT2A (Homo sapiens, UniProt P28223); assay: PDSP orthosteric binding screen
T13 construct: Psychoactive Drug Screening Program (PDSP)
Excerpt: as §1

5-HT3 = molecular target: T14, 5-HT3 (Homo sapiens, UniProt P46098); assay: PDSP orthosteric binding screen
T14 construct: Psychoactive Drug Screening Program (PDSP)
Excerpt: as §1

5-HT6 = molecular target: T15, 5-HT6 (Homo sapiens, UniProt P50406); assay: PDSP orthosteric binding screen
T15 construct: Psychoactive Drug Screening Program (PDSP)
T15 sequence (P50406 whole entry, species assumed): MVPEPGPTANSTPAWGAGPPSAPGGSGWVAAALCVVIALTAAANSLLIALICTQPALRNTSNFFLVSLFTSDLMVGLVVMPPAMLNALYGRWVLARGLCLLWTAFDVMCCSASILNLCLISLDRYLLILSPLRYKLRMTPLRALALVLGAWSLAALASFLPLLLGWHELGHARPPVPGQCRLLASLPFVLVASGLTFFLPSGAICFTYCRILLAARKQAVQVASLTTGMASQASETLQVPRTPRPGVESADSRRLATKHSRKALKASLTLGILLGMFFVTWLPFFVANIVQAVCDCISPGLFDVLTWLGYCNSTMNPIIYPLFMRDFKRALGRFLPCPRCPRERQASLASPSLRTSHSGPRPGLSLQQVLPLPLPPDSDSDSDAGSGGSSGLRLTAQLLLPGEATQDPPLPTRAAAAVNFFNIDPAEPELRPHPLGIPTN
Excerpt: as §1

D1 = molecular target: T16, D1 (Homo sapiens, UniProt P21728); assay: PDSP orthosteric binding screen
T16 construct: Psychoactive Drug Screening Program (PDSP)
Excerpt: as §1

M5 = molecular target: T17, M5 (Homo sapiens, UniProt P08912); assay: PDSP orthosteric binding screen
T17 construct: Psychoactive Drug Screening Program (PDSP)
T17 sequence (P08912 whole entry): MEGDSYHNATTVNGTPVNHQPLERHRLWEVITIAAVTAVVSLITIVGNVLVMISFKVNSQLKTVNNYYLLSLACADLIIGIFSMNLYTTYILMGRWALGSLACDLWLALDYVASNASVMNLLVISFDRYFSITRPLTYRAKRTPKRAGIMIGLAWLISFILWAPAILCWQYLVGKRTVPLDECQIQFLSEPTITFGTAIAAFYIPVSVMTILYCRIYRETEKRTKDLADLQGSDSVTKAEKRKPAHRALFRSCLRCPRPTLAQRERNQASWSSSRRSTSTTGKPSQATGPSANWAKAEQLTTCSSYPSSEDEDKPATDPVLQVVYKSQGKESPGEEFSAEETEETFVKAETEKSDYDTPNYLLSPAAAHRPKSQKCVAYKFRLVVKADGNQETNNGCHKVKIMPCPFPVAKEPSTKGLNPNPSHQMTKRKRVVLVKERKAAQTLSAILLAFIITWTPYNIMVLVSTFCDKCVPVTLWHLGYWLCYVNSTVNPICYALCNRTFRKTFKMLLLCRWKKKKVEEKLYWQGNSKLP
Excerpt: as §1

DOR = molecular target: T18, DOR (Homo sapiens, UniProt P41143); assay: PDSP orthosteric binding screen
T18 construct: Psychoactive Drug Screening Program (PDSP)
Excerpt: as §1

BZP Rat Brain Site = assay: PDSP orthosteric binding screen
Excerpt: as §1

SERT = molecular target: T19, SERT (Homo sapiens, UniProt P31645); assay: PDSP orthosteric binding screen
T19 construct: Psychoactive Drug Screening Program (PDSP)
T19 sequence (P31645 whole entry, species assumed): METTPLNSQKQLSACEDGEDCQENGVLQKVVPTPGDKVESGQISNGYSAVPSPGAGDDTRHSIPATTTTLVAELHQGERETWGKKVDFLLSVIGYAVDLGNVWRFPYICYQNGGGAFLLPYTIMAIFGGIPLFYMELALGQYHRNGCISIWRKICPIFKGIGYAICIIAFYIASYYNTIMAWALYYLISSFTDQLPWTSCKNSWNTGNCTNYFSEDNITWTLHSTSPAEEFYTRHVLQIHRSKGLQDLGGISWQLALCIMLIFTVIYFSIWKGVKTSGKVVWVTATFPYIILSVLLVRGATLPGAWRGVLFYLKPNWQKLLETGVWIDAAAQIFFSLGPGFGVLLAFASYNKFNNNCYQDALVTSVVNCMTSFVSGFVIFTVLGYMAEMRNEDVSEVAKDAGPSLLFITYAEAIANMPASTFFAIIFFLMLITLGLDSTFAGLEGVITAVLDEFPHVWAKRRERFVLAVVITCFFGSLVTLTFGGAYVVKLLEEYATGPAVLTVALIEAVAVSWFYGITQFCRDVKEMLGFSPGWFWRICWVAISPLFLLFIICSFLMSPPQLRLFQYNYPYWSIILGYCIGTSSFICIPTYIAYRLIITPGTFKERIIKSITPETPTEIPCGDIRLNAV
Excerpt: as §1

5-ht1e = molecular target: T20, 5-ht1e (Homo sapiens, UniProt P28566); assay: PDSP orthosteric binding screen
T20 construct: Psychoactive Drug Screening Program (PDSP)
T20 sequence (P28566 whole entry, species assumed): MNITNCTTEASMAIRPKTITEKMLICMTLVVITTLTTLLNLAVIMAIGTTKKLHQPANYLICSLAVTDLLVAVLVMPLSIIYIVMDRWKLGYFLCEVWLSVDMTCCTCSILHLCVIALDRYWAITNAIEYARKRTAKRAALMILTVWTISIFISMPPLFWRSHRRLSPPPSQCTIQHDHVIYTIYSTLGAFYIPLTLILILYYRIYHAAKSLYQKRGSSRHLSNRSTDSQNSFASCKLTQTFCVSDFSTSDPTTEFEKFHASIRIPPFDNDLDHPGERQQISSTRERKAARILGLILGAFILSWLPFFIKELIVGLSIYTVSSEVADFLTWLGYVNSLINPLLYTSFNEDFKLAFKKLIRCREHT
Excerpt: as §1

Beta1 = molecular target: T21, Beta1 (Homo sapiens, UniProt P08588); assay: PDSP orthosteric binding screen
T21 construct: Psychoactive Drug Screening Program (PDSP)
Excerpt: as §1

MOR = molecular target: T22, MOR (Homo sapiens, UniProt P35372); assay: PDSP orthosteric binding screen
T22 construct: Psychoactive Drug Screening Program (PDSP)
Excerpt: as §1

NET = molecular target: T23, NET (Homo sapiens, UniProt P23975); assay: PDSP orthosteric binding screen
T23 construct: Psychoactive Drug Screening Program (PDSP)
T23 sequence (P23975 whole entry): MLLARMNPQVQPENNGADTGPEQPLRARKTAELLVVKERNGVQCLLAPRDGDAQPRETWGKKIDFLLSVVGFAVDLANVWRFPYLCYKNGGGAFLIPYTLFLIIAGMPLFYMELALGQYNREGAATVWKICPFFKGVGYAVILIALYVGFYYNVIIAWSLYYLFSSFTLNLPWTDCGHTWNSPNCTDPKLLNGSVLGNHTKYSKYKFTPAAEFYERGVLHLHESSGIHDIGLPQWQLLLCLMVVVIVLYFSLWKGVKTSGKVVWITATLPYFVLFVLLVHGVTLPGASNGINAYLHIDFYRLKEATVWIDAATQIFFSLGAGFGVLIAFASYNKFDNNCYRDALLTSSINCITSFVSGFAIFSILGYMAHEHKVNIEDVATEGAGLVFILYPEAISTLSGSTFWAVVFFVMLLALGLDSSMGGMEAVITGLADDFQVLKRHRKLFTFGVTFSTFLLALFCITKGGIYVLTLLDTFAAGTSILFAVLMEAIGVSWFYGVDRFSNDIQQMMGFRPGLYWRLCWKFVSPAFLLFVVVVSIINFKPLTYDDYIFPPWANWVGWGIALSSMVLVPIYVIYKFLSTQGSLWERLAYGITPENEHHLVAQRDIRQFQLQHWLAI
Excerpt: as §1

PBR = molecular target: T24, PBR (Rattus norvegicus, UniProt P16257); assay: PDSP orthosteric binding screen
T24 construct: Psychoactive Drug Screening Program (PDSP)
Excerpt: as §1

Alpha2C = molecular target: T25, Alpha2C (Homo sapiens, UniProt P18825); assay: PDSP orthosteric binding screen
T25 construct: Psychoactive Drug Screening Program (PDSP)
Excerpt: as §1

H2 = molecular target: T26, H2 (Homo sapiens, UniProt P25021); assay: PDSP orthosteric binding screen
T26 construct: Psychoactive Drug Screening Program (PDSP)
Excerpt: as §1

5-HT7 = molecular target: T27, 5-HT7 (Homo sapiens, UniProt P34969); assay: PDSP orthosteric binding screen
T27 construct: Psychoactive Drug Screening Program (PDSP)
T27 sequence (P34969 whole entry, species assumed): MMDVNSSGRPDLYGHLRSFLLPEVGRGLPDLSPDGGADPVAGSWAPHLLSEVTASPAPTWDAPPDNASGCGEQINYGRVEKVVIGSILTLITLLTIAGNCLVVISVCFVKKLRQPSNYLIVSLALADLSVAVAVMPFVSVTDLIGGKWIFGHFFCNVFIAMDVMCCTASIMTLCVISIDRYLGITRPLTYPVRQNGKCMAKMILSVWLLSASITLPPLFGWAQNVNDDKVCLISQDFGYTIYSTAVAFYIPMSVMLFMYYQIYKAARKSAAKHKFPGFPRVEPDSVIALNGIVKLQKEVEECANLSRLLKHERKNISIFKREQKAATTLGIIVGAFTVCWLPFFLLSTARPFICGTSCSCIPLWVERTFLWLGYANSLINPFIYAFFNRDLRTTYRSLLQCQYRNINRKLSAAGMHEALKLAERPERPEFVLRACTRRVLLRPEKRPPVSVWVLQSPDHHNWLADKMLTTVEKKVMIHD
Excerpt: as §1

M4 = molecular target: T28, M4 (Homo sapiens, UniProt P08173); assay: PDSP orthosteric binding screen
T28 construct: Psychoactive Drug Screening Program (PDSP)
Excerpt: as §1

[1] = system: Fos-positive cells in brain regions of interest; assay: Fos immunohistochemistry in rat brain; format: in vivo, male Wistar rats
Experimental: Fos immunohistochemistry was used to identify the neural “signature” of SOC-1 (5 mg/kg) in rat brain relative to injections of peripheral oxytocin (OT) (1 mg/kg). SOC-1 produces a similar overall pattern of neural activation and behavioural effects as OT. However, the effects are much larger and additional areas are activated by SOC-1 that are implicated in the regulation of social behaviour (e.g. lateral septum, medial preoptic area and supraoptic nucleus). SOC-1 produces powerful activation of OT-containing neurons in both the supraoptic (FIG. 6: (A)=vehicle; (B)=oxytocin; and (C)=SOC-1) and paraventricular nucleus of the hypothalamus.

V1B = V1B (Homo sapiens, UniProt P47901); assay: Orthosteric binding, AVP receptors
rat hypothalamic neurons = assay: Signalling in rat hypothalamic neurons; format: cell-based

Compound: Cl.Cn1ncc2c1Nc1ccccc1NC2 [SOC-1]
- affinity for Beta2 (Beta2): no notable affinity
- affinity for H3 (H3): no notable affinity
- affinity for Sigma 1 (Sigma 1): no notable affinity
- affinity for D3 (D3): no notable affinity
- affinity for 5-HT1D (5-HT1D): no notable affinity
- affinity for D2 (D2): no notable affinity
- affinity for Beta3 (Beta3): no notable affinity
- affinity for Alpha1D (Alpha1D): no notable affinity
- affinity for D4 (D4): no notable affinity
- affinity for 5-HT1B (5-HT1B): no notable affinity
- affinity for H1 (H1): no notable affinity
- affinity for GABAA (GABAA): no notable affinity
- affinity for M2 (M2): no notable affinity
- affinity for DAT (DAT): no notable affinity
- affinity for 5-HT2A (5-HT2A): no notable affinity
- affinity for 5-HT3 (5-HT3): no notable affinity
- affinity for 5-HT6 (5-HT6): no notable affinity
- affinity for D1 (D1): no notable affinity
- affinity for M5 (M5): no notable affinity
- affinity for DOR (DOR): no notable affinity
- affinity for BZP Rat Brain Site (BZP Rat Brain Site): no notable affinity
- affinity for SERT (SERT): no notable affinity
- affinity for 5-ht1e (5-ht1e): no notable affinity
- affinity for Beta1 (Beta1): no notable affinity
- affinity for MOR (MOR): no notable affinity
- affinity for NET (NET): no notable affinity
- affinity for PBR (PBR): no notable affinity
- affinity for Alpha2C (Alpha2C): no notable affinity
- affinity for H2 (H2): no notable affinity
- affinity for 5-HT7 (5-HT7): no notable affinity
- affinity for M4 (M4): no notable affinity
- Fos expression in the oxytocin-positive cells in the supraoptic nucleus of the hypothalamus (SON) ([1]; 5 mg/kg): strongly activates Fos expression
- Mean number of Fos-positive cells, BNST (dorsolateral division) ([1]; OT 1 mg/kg, SOC-1 5 mg/kg): 10.25
- Mean number of Fos-positive cells, BNST (middle anterior part)) ([1]; OT 1 mg/kg, SOC-1 5 mg/kg): 7
- Mean number of Fos-positive cells, Central nucleus of the amygdala ([1]; OT 1 mg/kg, SOC-1 5 mg/kg): 14.33
- Mean number of Fos-positive cells, Lateral Parabrachial nucleus ([1]; OT 1 mg/kg, SOC-1 5 mg/kg): 12.91
- Mean number of Fos-positive cells, Lateral septum (ventral) ([1]; OT 1 mg/kg, SOC-1 5 mg/kg): 34.17
- Mean number of Fos-positive cells, Locus Ceruleus ([1]; OT 1 mg/kg, SOC-1 5 mg/kg): 8.08
- Mean number of Fos-positive cells, Medial preoptic area ([1]; OT 1 mg/kg, SOC-1 5 mg/kg): 10.30
- Mean number of Fos-positive cells, Median preoptic nucleus ([1]; OT 1 mg/kg, SOC-1 5 mg/kg): 7.08
- Mean number of Fos-positive cells, Nucleus of Solitary Tract ([1]; OT 1 mg/kg, SOC-1 5 mg/kg): 17.58
- Mean number of Fos-positive cells, PAG (ventrolateral) ([1]; OT 1 mg/kg, SOC-1 5 mg/kg): 8.58
- Mean number of Fos-positive cells, Paraventircular nucleus ([1]; OT 1 mg/kg, SOC-1 5 mg/kg): 47.18
- Mean number of Fos-positive cells, Supraoptic nucleus ([1]; OT 1 mg/kg, SOC-1 5 mg/kg): 15.42
- Mean percent of OT cells that were Fos positive, Paraventircular nucleus ([1]; OT 1 mg/kg, SOC-1 5 mg/kg): 23.41%
- Mean percent of OT cells that were Fos positive, Supraoptic nucleus ([1]; OT 1 mg/kg, SOC-1 5 mg/kg): 32.59%
- affinity for the orthosteric binding site of V1B (V1B): Nor does SOC-1 show any affinity
- Ca^2+ levels (rat hypothalamic neurons): did not reliably alter Ca^2+ levels
- IP1 levels (rat hypothalamic neurons): did not alter IP1 levels
- basal cAMP (rat hypothalamic neurons): able to decrease basal cAMP
- forskolin-stimulated cAMP (rat hypothalamic neurons): did not reliably decrease forskolin-stimulated cAMP
